Structures are written as SMILES.

By IC50 is commonly meant the concentration at which inhibition is half-maximal. Low readings indicate higher potency, high ones lower potency. The inhibition is the relative decrease from the control value, in per cent. A low value points to little suppression.

The first assay addresses T1, human mPGES-1 (Homo sapiens, UniProt O14684).
T1 construct: made in house; host or cells: FreeStyle CHO-S cells (Chinese hamster ovary), transient transfection with pcDNA3.1(+)/human mPGES-1; microsome fraction used
T1 sequence (O14684 1-152): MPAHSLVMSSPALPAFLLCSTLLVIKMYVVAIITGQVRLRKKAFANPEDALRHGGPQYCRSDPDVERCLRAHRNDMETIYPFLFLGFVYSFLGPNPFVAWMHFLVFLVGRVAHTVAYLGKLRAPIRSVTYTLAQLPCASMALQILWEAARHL
Description: Evaluation of human mPGES-1 enzyme inhibitory activity (PGE2 measured by HTRF, microsome fraction of CHO-S cells expressing human mPGES-1). The note with it: IC50 value; microsome fraction of CHO-S cells expressing human mPGES-1, PGE2 by HTRF. The assay is classed as biochemical. The method in brief:
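Enzyme source: microsomes from CHO-S cells transfected with human mPGES-1 and cultured 48 hr, diluted to 5 μg/mL protein in reduced GSH (12.5 mmol/L KPB solution). Test articles were in 0.1 mol/L potassium phosphate pH 7.4, final DMSO 2% (v/v). PGE2 formed was quantified by HTRF.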
For orientation: Time-resolved FRET reads energy transfer from a long-lived donor to a nearby acceptor.
Regarding `CO[C@@](C)(C(=O)N(C)Cc1ccc(Cl)c(-c2nc(O)nc(-c3ccccc3)n2)c1)C(F)(F)F` [Example 1-243], the IC50 amounted to 120 nM.
With `Oc1nc(-c2ccc(C#Cc3ccccc3)cc2)nc(-c2c(OCc3ccccn3)cccc2C(F)(F)F)n1` [Example 2-95], the half-inhibitory concentration (IC50) is 5 nM.
For `CC(C)(C)C(=O)NCc1ccc(Cl)c(-c2nc(O)nc(-c3ccc(C(F)(F)F)cc3)n2)c1` [Example 1-24], the midpoint of inhibition, the IC50, lay at 0.6 nM.
As to `Oc1nc(-c2ccc(C(F)(F)F)cc2)nc(-c2c(Cl)cccc2OCc2cccnc2)n1` [Example 2-60], the IC50 was 121 nM.
On to `CCC1(COc2ccc(-c3nc(O)nc(-c4cc(CNC(=O)C(C)(C)C(F)(F)F)ccc4Cl)n3)cc2)COC1` [Example 1-145], for which the IC50 amounted to 0.5 nM.
On the same count and under the same terms, under `CCN(Cc1ccc(Cl)c(-c2nc(O)nc(-c3ccccc3)n2)c1)C(=O)C(C)(C)C(F)(F)F` [Example 1-263, N-[4-chloro-3-(4-hydroxy-6-phenyl-1,3,5-triazin-2-yl)benzyl]-N-ethyl-3,3,3-trifluoro-2,2-dimethylpropionamide] stands 702 nM; under `CC(C)CC(=O)NCc1ccc(Cl)c(-c2nc(O)nc(-c3ccc(C(F)(F)F)cc3)n2)c1` [Example 1-37], 0.8 nM; under `Cc1cccc(C#Cc2ccc(-c3nc(O)nc(-c4c(OCc5ccccn5)cccc4C(F)(F)F)n3)cc2)c1` [Example 2-101], 6.5 nM.
The compound `CN(Cc1ccc(Cl)c(-c2nc(O)nc(-c3ccccc3)n2)c1)C(=O)C1(C(F)(F)F)CCCC1` [Example 1-238] came in with a 50% inhibitory concentration (IC50) of 7.4 nM.
Regarding `CN(Cc1ccc(Cl)c(-c2nc(O)nc(-c3ccccc3)n2)c1)C(=O)C(C)(C)c1ccccc1` [Example 1-237], the concentration for half-maximal inhibition (IC50) came out at 1300 nM.
For `Oc1nc(-c2ccc(C#CC3CC3)cc2)nc(-c2c(Cl)cccc2OCc2ccccn2)n1` [Example 2-82], it took 1.7 nM to reach half-maximal inhibition (IC50).
The compound `Cc1cccc(COc2cccc(C(F)(F)F)c2-c2nc(O)nc(-c3ccc(C#Cc4ccccc4Cl)cc3)n2)n1` [Example 2-108] yielded an IC50 of 6.4 nM.
On the same count and under the same terms, then `CCCCCOc1ccc(-c2nc(O)nc(-c3c(C)cccc3C)n2)cc1` [Example 2-69], with 84 nM; and `CC(C)c1ccc(-c2nc(O)nc(-c3cc(CNC(=O)C(C)(C)C)ccc3Cl)n2)cc1` [Example 1-46], with 0.7 nM.
Turning to `Cc1cccc(COc2cccc(Cl)c2-c2nc(O)nc(-c3ccc(C#Cc4ccccc4)cc3)n2)n1` [Example 2-87], half-maximal inhibition (IC50) was put at 1.8 nM. Compared with the last compound, the IC50 is about 2.6-fold higher.
Regarding `CO[C@](C)(C(=O)NCc1ccc(Cl)c(-c2nc(O)nc(-c3ccc(C(F)(F)F)cc3)n2)c1)C(F)(F)F` [Example 1-126], the IC50 came to 0.8 nM.
As to `Cc1cccc(COc2cccc(C(F)(F)F)c2-c2nc(O)nc(-c3ccc(C#Cc4ccccc4OC(F)(F)F)cc3)n2)n1` [Example 2-129], the IC50 was 32 nM.
In the case of `CCc1ccccc1COc1cccc(Cl)c1-c1nc(O)nc(-c2ccc(C(F)(F)F)cc2)n1` [Example 2-49], the IC50 worked out at 14 nM.
`CO[C@](C)(C(=O)NCc1ccc(Cl)c(-c2nc(O)nc(-c3ccc(C(F)(F)F)c(C)c3)n2)c1)C(F)(F)F` [Example 1-148] showed an IC50 of 1.7 nM.
On the same count and under the same terms, then `CCOC(=O)NCc1ccc(Cl)c(-c2nc(O)nc(-c3ccc(CC(C)C)cc3)n2)c1C` [Example 3-15], with 5.1 nM; and `C[C@H](Oc1cccc(Cl)c1-c1nc(O)nc(-c2ccc(OCC(C)(C)C)cc2)n1)c1ccccn1` [Example 2-64], with 12 nM.
Take `CC(C)(C)COc1ccc(-c2nc(O)nc(-c3cc(CO)ccc3C(F)(F)F)n2)cc1` [Example 1-207]: the IC50 came to 4.3 nM.
Still for that read-out and setting: under `CCc1cccc(-c2nc(O)nc(-c3cc(CNC(=O)C(C)(C)C(F)(F)F)ccc3Cl)n2)c1` [Example 1-110] stands 0.9 nM; under `CC1(C)CCCN(Cc2ccc(Cl)c(-c3nc(O)nc(-c4ccccc4)n3)c2)C1=O` [Example 1-241], 278 nM; under `CC(C)COc1ccc(-c2nc(O)nc(-c3cc(CNC(=O)C(C)(C)C(F)(F)F)ccc3Cl)n2)cn1` [Example 1-182], 1.6 nM.
In the case of `CC(F)(F)c1ccc(-c2nc(O)nc(-c3cc(CNC(=O)C(C)(C)C(F)(F)F)ccc3Cl)n2)cc1` [Example 1-119], the IC50 turned out to be 1 nM.
In turn, `O=C(NCc1ccc(Cl)c(-c2nc(O)nc(-c3ccc(F)c(C4CC4)c3)n2)c1)C1(C(F)(F)F)CC1` [Example 1-157] registered an IC50 of 0.7 nM.
Still for that read-out and setting: under `Cc1cccc(-c2nc(O)nc(-c3c(C)cccc3C)n2)c1` [Example 2-13] stands 23100 nM; under `C[C@@H](Oc1cccc(Cl)c1-c1nc(O)nc(-c2ccc(OCC(C)(C)C)cc2)n1)c1ccccn1` [Example 2-63], 259 nM; under `O=C(NCc1ccc(Cl)c(-c2nc(O)nc(-c3cccc(OC(F)(F)F)c3)n2)c1)C1(C(F)(F)F)CCCC1` [Example 1-78], 2.2 nM.
Same read-out and setting: then `CC(C)Oc1cccc(Cl)c1-c1nc(O)nc(-c2ccc(C(F)(F)F)cc2)n1` [Example 2-21], with 341 nM.
Take `COc1ccccc1C#Cc1ccc(-c2nc(O)nc(-c3c(OCc4cccc(C)n4)cccc3C(F)(F)F)n2)cc1` [Example 2-109]: half-maximal inhibition (IC50) required 2.8 nM.
Still for that read-out and setting: under `CC(C)Oc1cccc(-c2nc(O)nc(-c3cc(CNC(=O)C(C)(C)C(F)(F)F)ccc3Cl)n2)c1` [Example 1-91] stands 0.4 nM.
As to `CC(C)COc1ccc(-c2nc(O)nc(-c3c(Cl)cccc3O[C@@H](C)c3ccccn3)n2)cc1` [Example 2-67], 27 nM corresponded to half-maximal inhibition (IC50).
On the same count and under the same terms, under `COCC(C)(C)C(=O)N(C)Cc1ccc(Cl)c(-c2nc(O)nc(-c3ccccc3)n2)c1` [Example 1-239] stands 428 nM.
On the same count and under the same terms, then `CC1(C(=O)NCc2ccc(Cl)c(-c3nc(O)nc(-c4ccccc4)n3)c2)CCCC1` [Example 1-73], with 0.6 nM; and `CC(=O)NCc1ccc(Cl)c(-c2nc(O)nc(-c3ccc(C(F)(F)F)cc3)n2)c1C` [Example 3-7], with 19 nM.
Still for that read-out and setting: under `CN(Cc1ccc(Cl)c(-c2nc(O)nc(-c3ccc(C#CC4CCCCC4)cc3)n2)c1)C(=O)C(C)(C)C(F)(F)F` [Example 1-213] stands 88 nM.
Compound `Oc1nc(-c2ccc(C#Cc3cccc(C(F)(F)F)c3)cc2)nc(-c2c(OCc3ccccn3)cccc2C(F)(F)F)n1` [Example 2-104] yielded a concentration for half-maximal inhibition (IC50) of 18 nM.
On the same count and under the same terms, under `CCC[C@H](C)Oc1ccc(-c2nc(O)nc(-c3cc(CNC(=O)C(C)(C)C(F)(F)F)ccc3Cl)n2)cc1` [Example 1-155] stands 3.5 nM; under `CCOc1c(C)ccc(Cl)c1-c1nc(O)nc(-c2ccc(C(F)(F)F)cc2)n1` [Example 3-4], 202 nM; under `O=C(NCc1ccc(Cl)c(-c2nc(O)nc(-c3cccc(C4CC4)c3)n2)c1)C1(C(F)(F)F)CC1` [Example 1-160], 1.4 nM.
In the case of `CC(C)C(=O)NCc1ccc(Cl)c(-c2nc(O)nc(-c3ccc(C(F)(F)F)cc3)n2)c1` [Example 1-28], the IC50 worked out at 0.6 nM.
The compound `CC(C)(C)NC(=O)Cc1ccc(Cl)c(-c2nc(O)nc(-c3ccc(C(F)(F)F)cc3)n2)c1` [Example 1-41] returned an IC50 of 2.3 nM. Compared with the last compound, the IC50 is about 3.8-fold higher.
For `CC(C)(C)C(=O)NCc1ccc(Cl)c(-c2nc(O)nc(-c3cccc(C(C)(C)C)c3)n2)c1` [Example 1-57], the IC50 was 0.5 nM. This IC50 is about 4.6-fold lower than that of the compound before.
`Cc1cccc(C)c1-c1nc(O)nc(-c2ccc(O[C@@H](C)c3ccccc3)cc2)n1` [Example 2-43] showed an IC50 of 570 nM. This IC50 lies about 1100-fold higher than the previous one.
`COc1ccnc(COc2cccc(C(F)(F)F)c2-c2nc(O)nc(-c3ccc(C#Cc4ccccc4)cc3)n2)c1` [Example 2-120] displayed an IC50 of 4.1 nM.
`Cc1c(CNC(=O)C(C)(C)C(F)(F)F)ccc(Cl)c1-c1nc(O)nc(-c2ccc(CC(C)C)cc2)n1` [Example 3-14] registered an IC50 of 2 nM.
The compound `CO[C@](C)(C(=O)NCc1ccc(Cl)c(-c2nc(O)nc(-c3ccc(C)c(F)c3)n2)c1)C(F)(F)F` [Example 1-105] came in with an IC50 of 0.7 nM.
Regarding `CC(C)(C(=O)NCc1ccc(Cl)c(-c2nc(O)nc(-c3ccccc3)n2)c1)c1ccccc1` [Example 1-202], inhibition was half-maximal at 8.2 nM (IC50).
The same measure, in the same setting: under `C[C@H](Oc1cccc(Cl)c1-c1nc(O)nc(-c2ccc(OCC(C)(C)C)cc2)n1)c1ccccc1` [Example 2-65] stands 151 nM; under `CCOC(=O)NCc1ccc(Cl)c(-c2nc(O)nc(-c3ccc(C(F)(F)F)cc3)n2)c1` [Example 1-38], 1.5 nM.
`CC(C)(C)c1cccc(-c2nc(O)nc(-c3cc(CNC(=O)C(C)(C)C(F)(F)F)ccc3Cl)n2)c1` [Example 1-92] gave an IC50 of 0.5 nM.
`Cc1cccc(C)c1-c1nc(O)nc(-c2ccc(C(C)(C)C)cc2)n1` [Example 2-7] showed an IC50 of 3500 nM. Compared with the last compound, the IC50 is about 7000-fold higher.
With `Cc1cccc(C)c1-c1nc(O)nc(-c2ccc(OC(C)C)cc2)n1` [Example 2-38], the IC50 came out at 1000 nM.
Turning to `Oc1nc(-c2ccc(C#Cc3ccccc3)c(F)c2)nc(-c2c(OCc3ccccn3)cccc2C(F)(F)F)n1` [Example 2-106], the half-maximal inhibitory concentration (IC50) is 5 nM. This IC50 lies about 200-fold lower than the previous one.
Compound `CC1CCC(CO)(C(=O)NCc2ccc(Cl)c(-c3nc(O)nc(-c4ccccc4)n3)c2)CC1` (single isomer, unassigned) [Example 1-256] returned an IC50 of 98 nM.
Same read-out and setting: then `Cc1ccc(Cl)cc1-c1nc(O)nc(-c2ccc(C(F)(F)F)cc2)n1` [Example 1-3], with 164 nM; and `O=S(=O)(NCc1ccc(Cl)c(-c2nc(O)nc(-c3ccc(C(F)(F)F)cc3)n2)c1)C1CCCC1` [Example 1-42], with 1 nM.

Still in this assay, the particulars now being: at 30 μM test article.
The compound `O=C(O)c1ccc(Cl)c(-c2nc(O)nc(-c3ccc(OCC4CC4)cc3)n2)c1` [Example 1-192] displayed an inhibition at 30 µM of 41%.
As for `Cc1cccc(C)c1-c1nc(O)nc(-c2cccc(O)c2)n1` [Example 2-30], 30 µM produced 43% inhibition.

These data come from patent US12398111B2, “Triazine compounds and pharmaceutical use thereof” (Japan Tobacco Inc., priority 2014, dated 2025).
